Test results from patent US20200405697A1, “Antitumor Agent” (Taiho Pharmaceutical Co., Ltd, priority 2017, published 2020).

Target: T1, human RNR (histidine tagged human M1 and human M2 proteins) (Homo sapiens, UniProt P23921)
T1 construct: made in house; host or cells: Escherichia coli
T1 sequence (P23921 1-792): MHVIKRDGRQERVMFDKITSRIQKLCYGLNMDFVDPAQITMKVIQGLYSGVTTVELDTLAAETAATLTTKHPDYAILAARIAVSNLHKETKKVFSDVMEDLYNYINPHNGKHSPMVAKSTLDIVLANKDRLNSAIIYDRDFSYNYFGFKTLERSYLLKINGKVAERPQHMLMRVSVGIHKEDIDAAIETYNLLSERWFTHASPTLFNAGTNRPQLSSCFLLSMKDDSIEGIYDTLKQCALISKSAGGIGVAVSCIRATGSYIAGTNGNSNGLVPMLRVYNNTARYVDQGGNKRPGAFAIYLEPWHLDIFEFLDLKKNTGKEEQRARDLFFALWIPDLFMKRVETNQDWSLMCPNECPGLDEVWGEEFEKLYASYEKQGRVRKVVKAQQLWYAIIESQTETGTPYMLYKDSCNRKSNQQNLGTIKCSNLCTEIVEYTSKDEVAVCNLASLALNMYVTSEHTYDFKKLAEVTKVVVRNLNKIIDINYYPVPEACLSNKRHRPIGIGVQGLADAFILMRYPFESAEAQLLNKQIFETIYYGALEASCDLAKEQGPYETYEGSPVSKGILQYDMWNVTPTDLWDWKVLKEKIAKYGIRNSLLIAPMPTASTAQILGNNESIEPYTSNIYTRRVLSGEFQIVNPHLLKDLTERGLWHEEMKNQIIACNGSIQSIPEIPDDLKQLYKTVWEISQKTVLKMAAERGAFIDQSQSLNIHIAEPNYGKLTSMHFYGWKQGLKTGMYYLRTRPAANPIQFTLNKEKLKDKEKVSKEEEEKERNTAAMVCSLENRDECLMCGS
Test: Human RNR inhibition effect (dCDP formation from CDP)
Assay type: biochemical
Conditions: 10 μM CDP, 37° C. for 30 minutes, read-out: RNR inhibitory activity IC50
Procedure, shortened: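 His-tagged human M1 (isoform 1) and N-terminal 59-aa-truncated M2 (isoform 2), E. coli-expressed, Ni-purified, preincubated 20 min with compound (1% DMSO). Reaction with 10 μM CDP, 2 mM ATP, 0.24 mM NADPH, 6 mM DTT, 4 mM Mg acetate, 100 mM KCl, 50 mM HEPES pH 7.2, 30 min at 37° C. dCDP formed quantified by reverse-phase HPLC after heat stop.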

| Structure (SMILES) | IC50 |
| --- | --- |
| Cc1ccc(F)c([C@@H](C)[C@H](NS(=O)(=O)c2ccc(Cl)c(C(=O)N3CCC4(COC4)C3)n2)c2n[nH]c(=O)o2)c1C [Example 155, 5-chloro-N-((1S,2R)-2-(6-fluoro-2,3-dimethylphenyl)-1-(5-oxo-4,5-dihydro-1,3,4-oxadiazol-2-yl)propyl)-6-(2-oxa-6-aza-spiro[3.4]octane-6-carbonyl)pyridine-2-sulfonamide] | 130 nM |
| Cc1ccc(F)c([C@@H](C)[C@H](NS(=O)(=O)c2ccc(Cl)c3cccnc23)c2n[nH]c(=O)o2)c1C [Example 153, 5-chloro-N-((1S,2R)-2-(6-fluoro-2,3-dimethylphenyl)-1-(5-oxo-4,5-dihydro-1,3,4-oxadiazol-2-yl)propyl)quinoline-8-sulfonamide] | 110 nM |
| COc1cc(Cl)ccc1S(=O)(=O)N[C@H](c1n[nH]c(=O)o1)[C@H](C)c1c(F)ccc(C)c1C [Example 83, 4-chloro-N-((1S,2R)-2-(6-fluoro-2,3-dimethylphenyl)-1-(5-oxo-4,5-dihydro-1,3,4-oxadiazol-2-yl)propyl)-2-methoxybenzenesulfonamide] | 140 nM |
| Cc1ccc(F)c([C@@H](C)[C@H](NS(=O)(=O)c2ccc3c(c2)C(=O)CCC3)c2n[nH]c(=O)o2)c1C [Example 174, N-((1S,2R)-2-(6-fluoro-2,3-dimethylphenyl)-1-(5-oxo-4,5-dihydro-1,3,4-oxadiazol-2-yl)propyl)-8-oxo-5,6,7,8-tetrahydronaphthalene-2-sulfonamide] | 350 nM |
| Cc1c(Cl)ccc(F)c1[C@@H](C)[C@H](NS(=O)(=O)c1ncc(Cl)cc1C(N)=O)c1n[nH]c(=O)o1 [Example 249, 5-chloro-2-(N-((1S,2R)-2-(3-chloro-6-fluoro-2-methylphenyl)-1-(5-oxo-4,5-dihydro-1,3,4-oxadiazol-2-yl)propyl)sulfamoyl)nitotinamide] | 100 nM |
| COc1cc(Cl)ccc1S(=O)(=O)N[C@H](c1n[nH]c(=O)o1)[C@H](C)c1c(F)ccc(-c2cnc3c(c2)OCCN3C)c1C [Example 322, 4-chloro-N-((1S,2R)-2-(6-fluoro-2-methyl-3-(4-methyl-3,4-dihydro-2H-pyrido[3,2-b][1,4]oxazine-7-yl)phenyl)-1-(5-oxo-4,5-dihydro-1,3,4-oxadiazol-2-yl)propyl)-2-methoxybenzenesulfonamide] | 220 nM |
| COc1c(S(=O)(=O)N[C@H](c2n[nH]c(=O)o2)[C@H](C)c2c(F)ccc(C)c2C)ccc(Cl)c1C(C)OC(C)=O (stereo partly drawn) [Example 144, 1-(6-chloro-3-(N-((1S,2R)-2-(6-fluoro-2,3-dimethylphenyl)-1-(5-oxo-4,5-dihydro-1,3,4-oxadiazol-2-yl)propyl)sulfamoyl)-2-methoxyphenyl)ethyl acetate] | 170 nM |
| Cc1ccc(F)c([C@@H](C)[C@H](NS(=O)(=O)c2cccc3c2OCCN3C(=O)C2CC2)c2n[nH]c(=O)o2)c1C [Example 99, 4-(cyclopropanecarbonyl)-N-((1S,2R)-2-(6-fluoro-2,3-dimethylphenyl)-1-(5-oxo-4,5-dihydro-1,3,4-oxadiazol-2-yl)propyl)-3,4-dihydro-2H-benzo[b][1,4]oxazine-8-sulfonamide] | 290 nM |
| Cc1ccc(F)c([C@@H](C)[C@H](NS(=O)(=O)c2ccc(Cl)c(C(=O)N(C)C)n2)c2n[nH]c(=O)o2)c1C [Example 253, 3-chloro-6-(N-((1S,2R)-2-(6-fluoro-2,3-dimethylphenyl)-1-(5-oxo-4,5-dihydro-1,3,4-oxadiazol-2-yl)propyl)sulfamoyl)-N,N-dimethylpicolinamide] | 80 nM |
| CCc1ccc(F)c([C@@H](C)[C@H](NS(=O)(=O)c2ccc(Cl)c3c2OCCC3O)c2n[nH]c(=O)o2)c1C (single isomer, unassigned) [Example 239A] | 200 nM |
| Cc1cc(S(=O)(=O)N[C@H](c2n[nH]c(=O)o2)[C@H](C)c2c(F)ccc(C)c2C)c(C(N)=O)cc1Cl [Example 257, 5-chloro-2-(N-((1S,2R)-2-(6-fluoro-2,3-dimethylphenyl)-1-(5-oxo-4,5-dihydro-1,3,4-oxadiazol-2-yl)propyl)sulfamoyl)-4-methylbenzamide] | 100 nM |
| COc1cc(Cl)ccc1S(=O)(=O)N[C@H](c1n[nH]c(=O)o1)[C@H](C)c1cccc2c1CC(C)C2 (stereo partly drawn) [Example 67, 4-chloro-2-methoxy-N-((1S,2R)-2-(2-methyl-2,3-dihydro-1H-inden-4-yl)-1-(5-oxo-4,5-dihydro-1,3,4-oxadiazol-2-yl)propyl)benzenesulfonamide] | 700 nM |
| COc1cc(Cl)cnc1S(=O)(=O)N[C@H](c1n[nH]c(=O)o1)[C@H](C)c1c(F)ccc(C)c1C [Example 112, 5-chloro-N-((1S,2R)-2-(6-fluoro-2,3-dimethylphenyl)-1-(5-oxo-4,5-dihydro-1,3,4-oxadiazol-2-yl)propyl)-3-methoxypyridine-2-sulfonamide] | 150 nM |
| C[C@H](c1cccc2c1CCCC2)[C@H](NS(=O)(=O)c1ccc(N)cc1)c1n[nH]c(=O)o1 [Example 266, 4-amino-N-((1S,2R)-1-(5-oxo-4,5-dihydro-1,3,4-oxadiazol-2-yl)-2-(5,6,7,8-tetrahydronaphthalen-1-yl)propyl)benzenesulfonamide] | 850 nM |
| Cc1ccc(F)c([C@@H](C)[C@H](NS(=O)(=O)c2ccc(C3CC3)cc2C(N)=O)c2n[nH]c(=O)o2)c1C [Example 16, 5-Cyclopropyl-2-(N-((1S,2R)-2-(6-Fluoro-2,3-dimethylphenyl)-1-(5-oxo-4,5-dihydro-1,3,4-oxadiazol-2-yl)propyl)sulfamoyl)benzamide] | 130 nM |
| COc1ccc(-c2cc(S(=O)(=O)N[C@H](c3n[nH]c(=O)o3)[C@H](C)c3c(F)ccc(C)c3C)ccc2Cl)cc1 [Example 344, 6-chloro-N-((1S,2R)-2-(6-fluoro-2,3-dimethylphenyl)-1-(5-oxo-4,5-dihydro-1,3,4-oxadiazol-2-yl)propyl)-4′-methoxy-[1,1′-biphenyl]-3-sulfonamide] | 720 nM |
| Cc1c(F)ccc(F)c1[C@@H](C)[C@H](NS(=O)(=O)c1ccc(Cl)cc1C(N)=O)c1n[nH]c(=O)o1 [Example 28, 5-chloro-2-(N-((1S,2R)-2-(3,6-difluoro-2-methylphenyl)-1-(5-oxo-4,5-dihydro-1,3,4-oxadiazol-2-yl)propyl)sulfamoyl)benzamide] | 500 nM |
| C[C@H](c1c(F)ccc2ccccc12)[C@H](NS(=O)(=O)c1ccc(Cl)c2c1OCCC2O)c1n[nH]c(=O)o1 (stereo partly drawn) [Example 233, 5-chloro-N-((1S,2R)-2-(2-fluoronaphthalene-1-yl)-1-(5-oxo-4,5-dihydro-1,3,4-oxadiazol-2-yl)propyl)-4-hydroxychroman-8-sulfonamide] | 130 nM |
| CCc1ccc(F)c([C@@H](C)[C@H](NS(=O)(=O)c2ccc(Cl)c(C(C)O)c2OC)c2n[nH]c(=O)o2)c1C (stereo partly drawn) [Example 206A, 4-chloro-N-((1S,2R)-2-(3-ethyl-6-fluoro-2-methylphenyl)-1-(5-oxo-4,5-dihydro-1,3,4-oxadiazol-2-yl)propyl)-3-(1-hydroxyethyl)-2-methoxybenzenesulfonamide] | 150 nM |
| COC(=O)c1cc(Cl)ccc1S(=O)(=O)N[C@H](c1n[nH]c(=O)o1)[C@H](C)c1c(F)ccc(C)c1C [Example 103, methyl 5-chloro-2-(N-((1S,2R)-2-(6-fluoro-2,3-dimethylphenyl)-1-(5-oxo-4,5-dihydro-1,3,4-oxadiazol-2-yl)propyl)sulfamoyl)benzoate] | 410 nM |
| COc1cc(Cl)ccc1S(=O)(=O)N[C@H](c1n[nH]c(=O)o1)[C@H](C)c1c(F)ccc(-c2cncc(C(=O)N3CCOCC3)c2)c1C [Example 323, 4-chloro-N-((1S,2R)-2-(6-fluoro-2-methyl-3-(5-(morpholine-4-carbonyl)pyridin-3-yl)phenyl)-1-(5-oxo-4,5-dihydro-1,3,4-oxadiazol-2-yl)propyl)-2-methoxybenzenesulfonamide] | 420 nM |
| CC(=O)NC1CCOc2c(S(=O)(=O)N[C@H](c3n[nH]c(=O)o3)[C@H](C)c3c(F)ccc(C)c3C)ccc(Cl)c21 (stereo partly drawn) [Example 157, N-(5-chloro-8-(N-((1S,2R)-2-(6-fluoro-2,3-dimethylphenyl)-1-(5-oxo-4,5-dihydro-1,3,4-oxadiazol-2-yl)propyl)sulfamoyl)chroman-4-yl)acetamide] | 100 nM |
| Cc1ccc(F)c([C@@H](C)[C@H](NS(=O)(=O)c2cc(C(=O)N(C)C)c(Cl)cc2C(N)=O)c2n[nH]c(=O)o2)c1C [Example 39, 2-chloro-5-(N-((1S,2R)-2-(6-fluoro-2,3-dimethylphenyl)-1-(5-oxo-4,5-dihydro-1,3,4-oxadiazol-2-yl)propyl)sulfamoyl)-N1,N1-dimethyl terephthalamide] | 40 nM |
